# Reference: publication PMC12593409, “Heterochiral and Heterotypic Self-Assembly of Intrinsically Disordered Peptides Confers Peptide Supercoils with Exceptional Proteolytic Stability” (Journal of the American Chemical Society, 2025)
# Like-named read-outs stand apart in the source and are kept apart here. Non-standard residues stand in square brackets, D forms with d. Residues, ends and D or L forms follow the SMILES beside them. *: point of attachment. Acetyl(1-pyrenyl) = O=C(Cc1ccc2ccc3cccc4ccc1c2c34)*; d(pY) = N[C@H](Cc1ccc(OP(=O)(O)O)cc1)C(=O)O; pY = N[C@@H](Cc1ccc(OP(=O)(O)O)cc1)C(=O)O
# How the values were obtained:
# proteinase K = proteinase K (Parengyodontium album, UniProt P06873); assay: Proteolytic stability against proteinase K, followed by LC/MS
# Protocol: At designated time points, we quenched the reactions and analyzed them by LC/MS (Figures S34, S52–S53, and Table S1).
# Proteinase K Treatment: To 200 µL solutions containing peptides 1, 2, 3, 4, and their mixtures (1/2, 1/4, 3/2, 3/4) in double-distilled water, 2 µL of a 100 mg/mL proteinase K stock solution was added to achieve a final concentration of 1 mg/mL. The reactions were incubated at 37 °C. For controls, 40 µL aliquots were withdrawn from each solution prior […]
# were rapidly frozen in liquid nitrogen to stop the reaction. Samp les were then lyophilized at −80 °C, reconstituted in 0.1% TFA in H2O/acetonitrile (1:1 v/v), filtered, and analyzed […]
# LC/MS analysis was performed with solvent A (water + 0.1% formic acid) and solvent B (acetonitrile + 0.1% formic acid) with a gradient program using the following separation […]
# 13.1 min 95%A, 5%B; 14 min 95%A, 5%B. The mass spectrometer was operated in positive ion mode, scanning a range of 50 –3000 m/z.
# [1] = system: alkaline phosphatase (ALP); conditions: 1 U/mL ALP, 37 °C, neutral pH, monomeric peptide, LC/MS
# Source text: (§1) (D) Kinetics of ALP-mediated dephosphorylation under similar conditions using 1 U/mL ALP.
# (§2) To further validate the structural hypothesis, we performed enzymatic assays using ALP, which removes phosphate groups from both D- and L-tyrosines and has been widely used to explore enzyme-instructed self-assembly (EISA). , This setup isolates Pyn-EEEEEpY as the reactive component, allowing us to assess the impact of coassembly with Pyn-KKKKKK on dephosphorylation kinetics. Using the same protocol as the protease experiments, we measured the rate of dephosphorylation for Pyn-EEEEEpY monomers and their homo- and heterochiral mixtures with two equivalents of Pyn-KKKKKK (Figure S54 and Table S2).
# [2] = system: alkaline phosphatase (ALP); assay: in vitro; conditions: alkaline phosphatase (ALP, 1 U/mL)
# Source text: as §1, §2
# Sequence of proteinase K (P06873 106-384): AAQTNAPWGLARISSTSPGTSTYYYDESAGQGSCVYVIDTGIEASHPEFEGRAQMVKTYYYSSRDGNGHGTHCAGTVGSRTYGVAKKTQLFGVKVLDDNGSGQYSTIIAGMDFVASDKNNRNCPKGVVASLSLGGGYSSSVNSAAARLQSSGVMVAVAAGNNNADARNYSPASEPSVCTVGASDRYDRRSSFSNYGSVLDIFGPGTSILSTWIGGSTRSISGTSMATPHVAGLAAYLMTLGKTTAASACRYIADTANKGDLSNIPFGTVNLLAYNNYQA
compound,measurement,setting,value
"NCCCC[C@H](NC(=O)[C@H](CCCCN)NC(=O)[C@H](CCCCN)NC(=O)[C@H](CCCCN)NC(=O)[C@H](CCCCN)NC(=O)[C@H](CCCCN)NC(=O)Cc1ccc2ccc3cccc4ccc1c2c34)C(=O)O [compound 4, Pyn-(L)-KKKKKK]",proteolysis of Pyn-(L)-KKKKKK (4) alone,"proteinase K; 1 mg/mL proteinase K, 37 °C, peptide alone, LC/MS (Figure S35B)",largely resistant to proteolysis
Pyn-(L)-EEEEEpY/Pyn-(D)-kkkkkk [1/2],cleavage slower than for Pyn-(L)-EEEEEpY (1) alone,proteinase K,over 360 times
same,state of Pyn-(L)-EEEEEpY (1) under proteinase K for up to 24 h,proteinase K,remained largely intact
same,thalf of Pyn-(L)-EEEEEpY (1) in proteinase K digestion,proteinase K,> 3600 min
"O=C(O)CC[C@@H](NC(=O)Cc1ccc2ccc3cccc4ccc1c2c34)C(=O)N[C@H](CCC(=O)O)C(=O)N[C@H](CCC(=O)O)C(=O)N[C@H](CCC(=O)O)C(=O)N[C@H](CCC(=O)O)C(=O)N[C@H](Cc1ccc(OP(=O)(O)O)cc1)C(=O)O [compound 3, Pyn-(D)-eeeeepy] ({Acetyl(1-pyrenyl)}-[dE][dE][dE][dE][dE][d(pY)]-OH)",time to complete dephosphorylation,[1],≤ 30 min
same,half-life,[2],9.6 min
Pyn-(L)-EEEEEpY/Pyn-(L)-KKKKKK [1/4],increase in half-life compared to the L-peptide (1) alone,proteinase K,287 fold
same,thalf of Pyn-(L)-EEEEEpY (1) in proteinase K digestion,proteinase K,2872 min
"O=C(O)CC[C@H](NC(=O)Cc1ccc2ccc3cccc4ccc1c2c34)C(=O)N[C@@H](CCC(=O)O)C(=O)N[C@@H](CCC(=O)O)C(=O)N[C@@H](CCC(=O)O)C(=O)N[C@@H](CCC(=O)O)C(=O)N[C@@H](Cc1ccc(OP(=O)(O)O)cc1)C(=O)O [compound 1, Pyn-(L)-EEEEEpY] ({Acetyl(1-pyrenyl)}-EEEEE[pY]-OH)",time to almost complete proteolysis,"proteinase K; 1 mg/mL proteinase K, 37 °C, neutral pH, 1 mM monomeric peptide, LC/MS",≤ 30 min
same,thalf of Pyn-(L)-EEEEEpY (1) in proteinase K digestion,"proteinase K; 1 mg/mL proteinase K, 37 °C, neutral pH, double-distilled water, 1 mM 1 alone or 500 μM 1 with 2 equiv of 2 or 4, sampled 5 min, 30 min, 2 h, 24 h, kinetic analysis of HPLC peak areas (LC/MS)",approximately 10 min
same,half-life at 1 mM,proteinase K; isolated enzyme proteinase k,10 min
same,time to complete dephosphorylation,[1],≤ 30 min
same,half-life,[2],4.7 min
